Assay results reported in PubChem BioAssay AID248 (DTP/NCI, 2004).
Values joined by “and” are separate entries in the source; they are usually repeats but may differ in a detail not shown here. Equal values may be shown once. Inconclusive results and toxic doses are left out.

System: L1210 leukemia ip in BDF1 mice, survival T/C
Test: NCI In Vivo Anticancer Drug Screen. Data for tumor model L1210 Leukemia (intraperitoneal) in B6D2F1 (BDF1) mice
Settings: endpoint: mean survival time, higher = longer survival
Summary of the method: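 In this screen, tumor-bearing mice given compound are compared to those given vehicle, and their survival values are reported as a treated-to-control quotient.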

[1] = dose: 100.0 mg/kg/injection, schedule: Q01DX001 (ip), vehicle: saline
[2] = dose: 200.0 mg/kg/injection, schedule: Q01DX001 (ip), vehicle: saline
[3] = dose: 400.0 mg/kg/injection, schedule: Q01DX001 (ip), vehicle: saline
[4] = dose: 200.0 mg/kg/injection, schedule: Q01DX009 (ip), vehicle: Klucel (hydroxypropylcellulose) (HPC)
[5] = dose: 100.0 mg/kg/injection, schedule: Q01DX001 (ip), vehicle: Klucel (hydroxypropylcellulose) (HPC)
[6] = dose: 200.0 mg/kg/injection, schedule: Q01DX001 (ip), vehicle: Klucel (hydroxypropylcellulose) (HPC)
[7] = dose: 100.0 mg/kg/injection, schedule: Q01DX009 (ip), vehicle: Klucel (hydroxypropylcellulose) (HPC)
[8] = dose: 100.0 mg/kg/injection, schedule: Q04DX003 (ip), vehicle: Klucel (hydroxypropylcellulose) (HPC)
[9] = dose: 200.0 mg/kg/injection, schedule: Q04DX003 (ip), vehicle: Klucel (hydroxypropylcellulose) (HPC)
[10] = dose: 400.0 mg/kg/injection, schedule: Q04DX003 (ip), vehicle: Klucel (hydroxypropylcellulose) (HPC)

With `C[n+]1ccc(NC(=O)c2ccc(NC(=O)c3ccc(C(=O)Nc4ccc(C(=O)Nc5cc[n+](C)cc5)cc4)c(N)c3)cc2)cc1` the T/C (dose: 8.1 mg/kg/injection, schedule: Q01DX Z (oral), vehicle: water) was 97 % of control, the T/C (dose: 10.0 mg/kg/injection, schedule: Q01DX Z (ip), vehicle: water) was 123 % of control and the T/C (dose: 12.5 mg/kg/injection, schedule: Q01DX Z (ip), vehicle: water) was 124 % of control. The T/C (dose: 16.3 mg/kg/injection, schedule: Q01DX Z (oral), vehicle: water) was 112 % of control, the T/C (dose: 20.0 mg/kg/injection, schedule: Q01DX Z (ip), vehicle: water) was 162 % of control and the T/C (dose: 25.0 mg/kg/injection, schedule: Q01DX Z (ip), vehicle: water) was 150 % of control. The T/C (dose: 32.5 mg/kg/injection, schedule: Q01DX Z (oral), vehicle: water) was 101 % of control, the T/C (dose: 40.0 mg/kg/injection, schedule: Q01DX Z (ip), vehicle: water) was 91 % of control and the T/C (dose: 50.0 mg/kg/injection, schedule: Q01DX Z (ip), vehicle: water) was 120 % of control. For the same molecule, the T/C (dose: 62.0 mg/kg/injection, schedule: Q01DX Z (ip), vehicle: carboxymethylcellulose (CMC)) was 118 % of control and the T/C (dose: 65.0 mg/kg/injection, schedule: Q01DX Z (oral), vehicle: water) was 105 % of control.

`CC1CCCC2OC(=O)C(C(N)=O)C12` (configuration not stated) was tested, and the T/C [1] was 95 % of control, the T/C [2] was 100 % of control and the T/C [3] was 97 % of control.

With `COc1ccc(SC(=O)N(C)C)cc1` the T/C (dose: 100.0 mg/kg/injection, schedule: Q01DX001 (ip), vehicle: saline with Tween-80) was 98 % of control, the T/C (dose: 200.0 mg/kg/injection, schedule: Q01DX001 (ip), vehicle: saline with Tween-80) was 94 % of control and the T/C (dose: 400.0 mg/kg/injection, schedule: Q01DX001 (ip), vehicle: saline with Tween-80) was 98 % of control.

For `COc1cc2c(cc1OC)C1CC(=O)CCN1CC2` (configuration not stated), the T/C [4] was 101 % of control.

For `O=C(c1ccc([N+](=O)[O-])cc1)c1ccn[nH]1`, the T/C [5] was 103 % of control, the T/C [6] was 99 % of control and the T/C (dose: 400.0 mg/kg/injection, schedule: Q01DX001 (ip), vehicle: Klucel (hydroxypropylcellulose) (HPC)) was 94 % of control.

For `CCOC(=O)c1ccc(NC(=S)Nc2ccccc2S)cc1`, the T/C (dose: 25.0 mg/kg/injection, schedule: Q04DX002 (ip), vehicle: saline with Tween-80) was 101 % of control, the T/C (dose: 50.0 mg/kg/injection, schedule: Q04DX002 (ip), vehicle: saline with Tween-80) was 101 % of control and the T/C (dose: 100.0 mg/kg/injection, schedule: Q04DX002 (ip), vehicle: saline with Tween-80) was 93 % of control and 87 % of control.

In the case of `O=C1OC2CCC3C1C3C2Br` (configuration not stated), the T/C (dose: 25.0 mg/kg/injection, schedule: Q01DX009 (ip), vehicle: acetone) is reported as 92 % of control.

For `S=P(NCCS)(N1CC1)N1CC1`, the T/C [1] was 106 % of control, the T/C [2] was 101 % of control and the T/C [3] was 101 % of control.

With `Cc1ccc(NC(=O)Nc2ccccc2C)c(C)c1` the T/C [7] was 93 % of control, the T/C [8] was 103 % of control and the T/C [4] was 90 % of control. For the same molecule, the T/C [9] was 91 % of control and the T/C [10] was 96 % of control.

In the case of `O=C(NC(CO)C(=O)OCc1ccccc1)OCc1ccccc1` (configuration not stated), the T/C [7] is reported as 104 % of control, the T/C [8] is reported as 104 % of control and the T/C (dose: 100.0 mg/kg/injection, schedule: Q04DX003 (ip), vehicle: saline with Tween-80) is reported as 98 % of control. For the same molecule, the T/C [4] was 102 % of control, the T/C [9] was 101 % of control and the T/C (dose: 200.0 mg/kg/injection, schedule: Q04DX003 (ip), vehicle: saline with Tween-80) was 95 % of control. For the same molecule, the T/C (dose: 400.0 mg/kg/injection, schedule: Q01DX009 (ip), vehicle: Klucel (hydroxypropylcellulose) (HPC)) was 102 % of control, the T/C [10] was 90 % of control and the T/C (dose: 400.0 mg/kg/injection, schedule: Q04DX003 (ip), vehicle: saline with Tween-80) was 90 % of control.

In the case of `CC1CC(C#N)Nc2ccccc2N1` (configuration not stated), the T/C (dose: 50.0 mg/kg/injection, schedule: Q01DX001 (ip), vehicle: Klucel (hydroxypropylcellulose) (HPC)) is reported as 109 % of control, the T/C (dose: 50.0 mg/kg/injection, schedule: Q01DX009 (ip), vehicle: Klucel (hydroxypropylcellulose) (HPC)) is reported as 96 % of control and the T/C (dose: 50.0 mg/kg/injection, schedule: Q04DX003 (ip), vehicle: Klucel (hydroxypropylcellulose) (HPC)) is reported as 98 % of control. The T/C [5] was 106 % of control, the T/C [7] was 93 % of control and 121 % of control and the T/C [8] was 100 % of control and 104 % of control. The T/C [6] was 104 % of control, the T/C [4] was 86 % of control and the T/C [9] was 96 % of control and 90 % of control. The T/C [10] was 101 % of control.
